# What was measured:
# [1] = Plasma pharmacokinetics after single oral dose; format: in vivo; details: human, oral, 400 mg
# healthy volunteers [2] = assay: ECG outlier analyses; format: in vivo, human; details: moxifloxacin 400 mg, n = 18
# healthy volunteers [3] = assay: ECG morphological analyses; format: in vivo, human; details: moxifloxacin 400 mg, n = 18
# healthy volunteers [4] = assay: Safety assessment: treatment-emergent adverse events; format: in vivo, human; details: moxifloxacin 400 mg, one subject
# [5] = tested on: QT/QTc interval of healthy volunteers; assay: Concentration-QTc
smiles,measurement,setting,value
COc1c(N2C[C@@H]3CCCN[C@@H]3C2)c(F)cc2c(=O)c(C(=O)O)cn(C3CC3)c12 [Moxifloxacin],AUC,[1],24700 ± 5240 ng·h/mL
same,Cmax,[1],2760 ± 559 ng/mL
same,Tmax,[1],1 h
same,Heart rate: Bradycardic outliers,healthy volunteers [2],0 n (%)
same,Heart rate: Tachycardic outliers,healthy volunteers [2],1 (6) n (%)
same,PR interval: Outliers,healthy volunteers [2],0 n (%)
same,QRS interval: Outliers,healthy volunteers [2],0 n (%)
same,QTcF >30‐60 ms inc change from baseline,healthy volunteers [2],2 (11) n (%)
same,QTcF >60 ms inc change from baseline,healthy volunteers [2],0 n (%)
same,QTcF New >480 ms,healthy volunteers [2],0 n (%)
same,QTcF New >500 ms,healthy volunteers [2],0 n (%)
same,New ST‐segment depression changes,healthy volunteers [3],1 (6) n (%)
same,New ST‐segment elevation changes,healthy volunteers [3],0 n (%)
same,New atrial fibrillation,healthy volunteers [3],0 n (%)
same,New atrial flutter,healthy volunteers [3],0 n (%)
same,New second‐degree heart block,healthy volunteers [3],0 n (%)
same,New third‐degree heart block,healthy volunteers [3],0 n (%)
same,"Somnolence, frequency of subjects",healthy volunteers [4],5.6%
same,"Predicted Mean Effect at Mean Cmax (placebo-corrected change from baseline QTcF, ΔΔQTcF)","[5]; moxifloxacin 400 mg, mean Cmax 2758.3 ng/mL",15.2 ms
same,Slope of placebo-adjusted change from baseline QTcF vs plasma concentration,"[5]; moxifloxacin plasma concentration, assay sensitivity",4.24 ms/[μg/mL]

# From publication PMC7586935 (Journal of Clinical Pharmacology, 2020)
